Reference: US12502393B2, “Dual mode of action soluble guanylate cyclase activators and phosphodiesterase inhibitors and uses thereof” (TOPADUR PHARMA AG, priority 2018, dated 2025)

Experiments:
Human Platelets = assay: Total cGMP in human platelets; assay type: cell-based; conditions: for Ratio Maximum cGMP increase vs Baseline: 1 μM riociguat and 100 nM BAY 190954, incubation 2 h; for Concentration (nM) for 3-fold cGMP or 2-fold* increase vs Baseline: 1 μM riociguat, 100 nM BAY 190954
Procedure: Effects of test and reference compounds on total cGMP in human platelets were investigated as described by Dunkern and Hatzelmann (Cell Signal. 17: 331-9, 2005) with modifications. Briefly, buffy coats (acquired form SRK Blutspende Zurich) were 4-fold diluted in 150 mM sodium chloride solution containing 0.9% sodium citrate and centrifuged at 200 g for 10 min. The resulting platelet-rich plasma was supplemented with a 1/10 volume of ACD solution (85 mM sodium citrate, 111 mM D-glucose, 71 mM citric acid, pH 4.4) and apyrase (Sigma AG) to a final concentration of 2 U/ml. After another centrifugation (1400 g, 10 min) the cellular pellet was resuspended in Ca2+/Mg2+-free Hepes-Tyrode buffer (134 mM NaCl, 12 mM NaHCO3, 2.9 mM KCl, 0.36 mM NaH2PO4, 5 mM HEPES, 5 mM glucose, 0.5% (w/v) bovine serum albumin, pH 7.4) and platelets were counted.
Platelets were used at 9×10^7 cells in 100 μl per well and after adding test and reference compounds the incubation volume was 200 μl per well in Hepes-Tyrode. Experiments in platelets were done in presence of 1 μM riociguat and 100 nM BAY 190954 (PDE2 inhibitor) (Lucerna Chem AG) and test/reference compounds were added after a preincubation time of 15 min. At the end of the incubation time (see below) the reaction was terminated by adding 20 μl of 2N HCl per well. Following a 20 sec on a plate shaker (300 rpm) the plate was left for 15 min and then centrifuged at 1000×g for 5 min. Supernatants were stored at −80° C.
(§1) cGMP was determined by a commercially available ELISA kit (Direct cGMP ELISA kit, Enzo Life Sciences AG, Lauren, Switzerland) with a lower detection limit of 0.08 pmol/ml using the acetylation protocol following manufacturer's instructions. Results are given as the means from at least two independent experiments each in triplicate.
(§2) To study concentration-dependent effects on total cGMP test and reference compounds were investigated from 0.1 nM to 1 μM in half-logarithmic steps with an incubation time of 2 h. To examine the time course the incubation times were (min) 10, 30, 60, 90, 120 at 1 μM of test or reference compound.
(§3) Compounds were diluted from stock solutions in DMSO. The final concentration of DMSO in all wells including the vehicle controls was 0.2% for human trabecular meshwork and rat aortic smooth muscle cells and 0.3% for platelets.
(§4) From time course experiments, the time to half of the maximum cGMP increase with 1 μM of test compound has been extrapolated (t0.5max).

[1] = biological target: T1, recombinant human (rh) PDE5A (Homo sapiens, UniProt O76074); assay: Phosphodiesterase-5 activity assay (radiometric SPA); assay type: biochemical; conditions: rhPDE5A1, 0.5 μM cGMP, 20 min at 37° C.
T1 construct: GST; purchased SIGMA E9034

[2] = tested on: Human Trabecular Meshwork Cells; assay: Cellular cGMP assay in human trabecular meshwork cells; assay type: cell-based; conditions: HTMC, 10 μM Riociguat; for Ratio Maximum cGMP increase vs Baseline: 5 mM GSH, incubation 2 h
[3] = tested on: Rat aortic smooth muscle cells; assay: Cellular cGMP assay in rat aortic smooth muscle cells; assay type: cell-based; conditions: 10 μM Riociguat; for Ratio Maximum cGMP increase vs Baseline: 5 mM GSH, incubation 2 h
Procedure: Examples (Test compounds) were characterized for their potency and efficacy to elevate cGMP in cellular systems such as human trabecular meshwork cells (Table 3), human platelets (Table 5) and rat aortic smooth muscle cells (Table 4).
Human trabecular meshwork cells (ABC Biopply AG, Solothurn, Switzerland) or rat aortic smooth muscle cells (Sigma Aldrich AG, Buchs, Switzerland) were plated in a 96 well plate precoated with collagen (Collagen Type I solution from rat tail, Sigma; diluted to 0.1 mg/ml) at 20.000 cells per well and grown in corresponding Trabecular Meshwork (ABC Supply AG) or Smooth Muscle (Sigma AG) Growth medium as provided by the manufacturers. After 18 h medium was exchanged and new medium added supplemented with 5 mM GSH. The next day culture medium was exchanged to DMEM with low glucose supplemented with 5 mM GSH. Cells were pre-incubated with 10 μM Riociguat (soluble guanylate cyclase stimulator; Lucerna-Chem AG, Luzern, Switzerland) for 15 min before test or reference compounds or vehicle was added to a final incubation volume of 100 μl per well. At the end of the incubation time (see below) the reaction was terminated by adding HCl (0.16M), IBMX (Isobutylmethylxanthin) (2 mM) in DMSO (2%) to the culture medium, final concentrations per well are given in brackets. Following a 20 sec on a plate shaker (200 rpm) the plate was immediately frozen at −80° C.
as §1, §2, §3, §4

[4] = Human plasma protein binding; assay type: in vitro ADME; conditions: for fraction unbound: human, read-out: % Unbound in human plasma
Procedure: An aliquot of 200 μL of human plasma containing test compound was spiked into donor well (red chamber) of the insert. 350 μL of PBS was spiked into receiver well (white chamber) of the insert.
The samples were matrix equilibrated with opposite matrix (25 μL of plasma/buffer sample was matched with 25 μL of blank buffer/plasma). Matrix matched samples were precipitated with 200 μL of acetonitrile containing internal standard. Samples were vortexed at 1000 rpm for 5 min and centrifuged at 4000 rpm for 10 min. Supernatant was separated, diluted 2 fold with water and analysed in LC-MS/MS. (Table 2).

[5] = 3-fold increase (values without asterisk)
[6] = 2-fold increase (values marked *)

| Structure (SMILES) | Ratio Maximum cGMP increase vs Baseline (Human Platelets) | Concentration (nM) for 3-fold cGMP or 2-fold* increase vs Baseline (Human Platelets; [5]) | IC50 [1] | Concentration (nM) for 3-fold or 2-fold* cGMP increase vs Baseline [2, 5] | Ratio Maximum cGMP increase vs Baseline [2] | Concentration (nM) for 3-fold cGMP increase vs Baseline [3] | Ratio Maximum cGMP increase vs Baseline [3] | Concentration (nM) for 3-fold cGMP or 2-fold* increase vs Baseline (Human Platelets; [6]) | Concentration (nM) for 3-fold or 2-fold* cGMP increase vs Baseline [2, 6] | % Bound in human plasma [4] | fraction unbound [4] |
| --- | --- | --- | --- | --- | --- | --- | --- | --- | --- | --- | --- |
| CCCc1nn(C)c2c(=O)[nH]c(-c3cc(S(=O)(=O)N4CCC([C@H](CO[N+](=O)[O-])O[N+](=O)[O-])CC4)ccc3OCC)nc12 [Compound 1a, (R)-1-(1-((4-ethoxy-3-(1-methyl-7-oxo-3-propyl-6,7-dihydro-1H-pyrazolo[4,3-d]pyrimidin-5-yl)phenyl)sulfonyl)piperidin-4-yl)ethane-1,2-diyl dinitrate] | 67.4 | 57 nM | 5 nM | 26.7 nM | 55.7 | 222 nM | 4.44 | – | – | – | – |
| CCCc1nc(C)c2c(=O)[nH]c(-c3cc(S(=O)(=O)N4CCC([C@@H](O)CO[N+](=O)[O-])CC4)ccc3OCC)nn12 [Compound 2c, (R)-2-(1-((4-ethoxy-3-(5-methyl-4-oxo-7-propyl-3,4-dihydroimidazo[5,1-f][1,2,4]triazin-2-yl)phenyl)sulfonyl)piperidin-4-yl)-2-hydroxyethyl nitrate] | 105.4 | 4.3 nM | 0.14 nM | 10.1 nM | 52.1 | 729 nM | 5.93 | – | – | – | – |
| CCCc1nc(C)c2c(=O)[nH]c(-c3cc(S(=O)(=O)N4CCC(CC(C)(CO[N+](=O)[O-])CO[N+](=O)[O-])CC4)ccc3OCC)nn12 [Compound 2o, 2-((1-((4-ethoxy-3-(5-methyl-4-oxo-7-propyl-3,4-dihydroimidazo[5,1-f][1,2,4]triazin-2-yl)phenyl)sulfonyl)piperidin-4-yl)methyl)-2-methylpropane-1,3-diyl dinitrate] | 202.8 | – | 0.52 nM | – | 86.9 | – | – | 120* nM | 1.9* nM | 99.95% | 0.0005 |
| CCCc1nc(C)c2c(=O)[nH]c(-c3cc(S(=O)(=O)N4CCC(CC(C)(CO)CO[N+](=O)[O-])CC4)ccc3OCC)nn12 (stereo not drawn) [Compound 2p, 3-(1-((4-ethoxy-3-(5-methyl-4-oxo-7-propyl-3,4-dihydroimidazo[5,1-f][1,2,4]triazin-2-yl)phenyl)sulfonyl)piperidin-4-yl)-2-(hydroxymethyl)-2-methylpropyl nitrate] | 204.1 | – | 0.11 nM | – | 46.1 | – | – | 102* nM | 1.4* nM | 99.66% | 0.0034 |
| CCCc1nn(C)c2c(=O)[nH]c(-c3cc(S(=O)(=O)N4CCC([C@@H](O)CO)CC4)ccc3OCC)nc12 [Compound 4, (R)-5-(5-((4-(1,2-dihydroxyethyl)piperidin-1-yl)sulfonyl)-2-ethoxyphenyl)-1-methyl-3-propyl-1,6-dihydro-7H-pyrazolo[4,3-d]pyrimidin-7-one] | 6.4 | 92.6 nM | 1.5 nM | 99.8 nM | 12.4 | >10000 nM | 1.04 | – | – | – | – |
| CCCc1nc(C)c2c(=O)[nH]c(-c3cc(S(=O)(=O)N4CCC([C@@H](O)CO)CC4)ccc3OCC)nn12 [Compound 25, (R)-2-(5-((4-(1,2-dihydroxyethyl)piperidin-1-yl)sulfonyl)-2-ethoxyphenyl)-5-methyl-7-propyl imidazo[5,1-f][1,2,4]triazin-4(3H)-one] | 23.3 | 5.9 nM | 0.08 nM | 58.5 nM | 22.3 | >10000 nM | 0.89 | – | – | – | – |
